For data set [1] the following is noted: cited from earlier work.
Data set [2] is described as follows: Ex vivo determination of skin-accumulated amount of tretinoin contained in the polyvinylic mask. It is filed as in vitro ADME, human. As to conditions: polyvinylic mask 2.5% Trans-Retinoic acid Lot P10044, n = 3, average ± s.d. On the procedure:
Assessing the Absence of Skin Permeation of Retinoic Acid During the Application Period by Ex Vivo Determination of Skin-Accumulated Amount of the Tretinoin Contained in the Polyvinylic Mask
An ex vivo study of the skin-accumulated amount of retinoic acid contained in the polyvinylic mask was conducted at the Department of Pharmaceutical Sciences of the University of Milan. The aim of the work was the assessment of the barrier effect by polyvinyl alcohol toward the percutaneous absorption of Trans-Retinoic acid under standard conditions of use of the mask. A sample of polyvinylic mask containing 2.5% Trans-Retinoic acid (Lot n° P10044) was subjected to the test. The membrane was prepared by using skin of human origin, which is the most appropriate for foreseeing in vivo absorption. As it is known that the skin barrier against permeation of exogenous substances by passive diffusion mainly consists of the corneal layer, absorption was assessed by using as membrane the […] (SCE) obtained by mechanical separation of the derm from the skin.
The difference in the amounts of tretinoin accumulated in the membranes over the two exposure times, reported in the following table 1, is not significant; therefore, it is evident how the barrier formed by polyvinyl alcohol interferes, by inhibiting percutaneous absorption of Trans-Retinoic acid and therefore its undesired systemic effects, which instead are present in products lacking said barrier and containing it.

As for `CC1=C(/C=C/C(C)=C/C=C/C(C)=C/C(=O)O)C(C)(C)CCC1` [Tretinoin, retinoic acid], in data set [1], the solubility in dichloromethane entry was “soluble in dichloromethane”, the solubility in ethanol result is “scarcely soluble in ethanol”, the solubility in ether entry is on record as “moderately soluble in ether” and the solubility in water result is reported as “practically insoluble in water”. Besides, in data set [2] (exposure time 30 min), the “Amount of SCE-accumulated tretinoin” value was 1.32 ± 1.01 μg/cm^2 and the “Amount of SCE-accumulated tretinoin, % w/w with respect to the amount applied” value is on record as 1.15 ± 0.84 % w/w. In addition, in data set [2] (exposure time 60 min), the “Amount of SCE-accumulated tretinoin” value is reported as 1.63 ± 0.23 μg/cm^2 and the “Amount of SCE-accumulated tretinoin, % w/w with respect to the amount applied” value was found to be 1.38 ± 0.12 % w/w.

These data come from US8945594B2, “Vinylic mask with peel-off effect for topical use containing high concentrations of retinoic acid” (Laboratori Farmaceutici Krymi S.p.A., priority 2010, dated 2015).
